Tested on: rabbit eye (conjunctiva, iris, cornea)
Assay: Ocular tolerability (Draize) in rabbits
Type: in vivo, rabbits (New Zealand White)
Procedure: Two aqueous solutions were used.
The first contained 1% by weight of L-(−)-moprolol hydrochloride (corresponding to 0.87% by weight of L-(−)-moprolol). The second contained 1.14% by weight of L-(−)-moprolol L-(+)-tartrate (2:1) (corresponding to 0.87% by weight of L-(−)-moprolol).
12 male rabbits (New Zealand White) with an average weight of 2 kg and an average age of ten months were used, divided into two groups of six rabbits each. The first group was treated with 0.1 ml of the first test solution three times a day for fifteen days. The second group was treated with 0.1 ml of the second test solution three times a day for fifteen days.
The tolerability was evaluated according to J. Draize et al., Pharmacol. Exp. Ther., 83, 377-390 (1944).

[1] = Draize score, male rabbits, 0.1 ml aqueous solution (0.87% by weight L-(−)-moprolol) three times a day for fifteen days

SMILES	Conjunctiva Lachrymation [1]	Conjunctiva Reddening [1]	Conjunctiva Swelling [1]	Cornea Area of the cornea affected by opacity [1]	Cornea Opacity [1]	Iris [1]	local tolerability (rabbit, in vivo)	Total Score (sum of Draize scores, male rabbits, 0.1 ml aqueous solution (0.87% by weight L-(−)-moprolol) three times a day for fifteen days)	Conjunctiva Lachrymation (rabbit, in vivo)	Conjunctiva Reddening (rabbit, in vivo)	Conjunctiva Swelling (rabbit, in vivo)	Cornea Area of the cornea affected by opacity (rabbit, in vivo)	Cornea Opacity (rabbit, in vivo)	Iris (rabbit, in vivo)	Total Score (rabbit, in vivo)
COc1ccccc1OC[C@@H](O)CNC(C)C.COc1ccccc1OC[C@@H](O)CNC(C)C.O=C(O)C(O)C(O)C(=O)O [L-(−)-moprolol L-(+)-tartrate, L-(−)-moprolol L-(+)-tartrate (2:1)]	1	0	0	0	0	0	better local tolerability	1	–	–	–	–	–	–	–
COc1ccccc1OC[C@@H](O)CNC(C)C.Cl [L-(−)-moprolol hydrochloride, reference compound]	–	–	–	–	–	–	–	–	2	1	2	0	0	0	5

Reference: patent US7524886B2, “L-(−)-moprolol L-(+)-tartrate” (Aziende Chimiche Riunite Angelini Francesco A.C.R.A.F. …, priority 2004, dated 2009)
